Laboratory results taken from PubChem BioAssay (NCI).
Values joined by “and” are separate entries in the source; they are usually repeats but may differ in a detail not shown here. Equal entries are not always repeated.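 Step 1: Grow cells in 96-well plates. Step 2: Expose to compound for 48 hours at 5 concentrations. Step 3: Interpolate endpoints linearly; if unreached, use highest concentration. The concentration for 50% growth inhibition is given as GI50. TGI: total growth inhibition.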

Columns and labels:
Experiment in all cases: NCI anticancer screen, dose series, 48 h; in the data active means GI50 below about 0.43 µM; inactive means the rest
HOP-62 NSCLC = system: HOP-62 NSCLC
MOLT-4 leukemia = system: MOLT-4 leukemia
UO-31 renal = system: UO-31 renal
SW-620 colon = system: SW-620 colon
CAKI-1 renal = system: CAKI-1 renal
OVCAR-3 ovarian = system: OVCAR-3 ovarian
MCF7 breast = system: MCF7 breast
SR leukemia = system: SR leukemia
MDA-MB-435 = system: MDA-MB-435
MDA-N = system: MDA-N

C=C1CC2CC[C@@]34C[C@@H]5O[C@@H]6C(O[C@H]7CC[C@H](CC(=O)OC8[C@@H](C)C9OC%10C[C@]%11(C[C@@H]%12O[C@@]%13(C[C@@H](C)[C@@H]%12O%11)C[C@H](C)[C@@H]%11OC%12CC(C(O)CO)OC%12C[C@@H]%11O%13)OC%10CC9O[C@H]8C[C@H]8O[C@@H](CC[C@@H]1O2)C[C@@H](C)C8=C)O[C@@H]7[C@@H]6O3)C5O4 (some centres not stated)
inactive: GI50 (UO-31 renal) 0.505 µM
0.104 µM: TGI (MOLT-4 leukemia)
active: GI50 (HOP-62 NSCLC) 0.000174 µM | GI50 (MOLT-4 leukemia) < 0.000148 µM | GI50 (SW-620 colon) < 0.000148 µM | GI50 (CAKI-1 renal) < 0.000148 µM | GI50 (OVCAR-3 ovarian) < 0.000148 µM
> 1.48 µM: TGI (UO-31 renal) | TGI (SW-620 colon) | TGI (CAKI-1 renal) | TGI (MCF7 breast)
0.00108 µM and < 0.000148 µM: TGI (OVCAR-3 ovarian)

O=c1cnn(C2OC(CO)C(O)C(F)C2O)c(=O)[nH]1 (configuration not stated)
> 100 µM: TGI (UO-31 renal) | TGI (SW-620 colon) | TGI (SR leukemia) | TGI (CAKI-1 renal) | TGI (MDA-MB-435) | TGI (MDA-N) | TGI (OVCAR-3 ovarian) | TGI (MCF7 breast)

CCCCCCCCCCCCNC(=O)NCC(OCC)OCC
> 10 µM: TGI (HOP-62 NSCLC) | TGI (MOLT-4 leukemia) | TGI (SW-620 colon) | TGI (SR leukemia) | TGI (CAKI-1 renal) | TGI (MDA-MB-435) | TGI (MDA-N) | TGI (MCF7 breast)

COc1c2cc(C(C)(C)C)cc1CSCc1cc(C(C)(C)C)cc(c1OC)CCCCC2
> 50 µM: TGI (HOP-62 NSCLC) | TGI (MOLT-4 leukemia) | TGI (UO-31 renal) | TGI (SW-620 colon) | TGI (SR leukemia) | TGI (MDA-MB-435) | TGI (MDA-N) | TGI (OVCAR-3 ovarian) | TGI (MCF7 breast)

N#CI1OC(=O)c2ccccc21
> 100 µM: TGI (HOP-62 NSCLC) | TGI (MOLT-4 leukemia) | TGI (UO-31 renal) | TGI (SW-620 colon) | TGI (SR leukemia) | TGI (CAKI-1 renal) | TGI (MDA-MB-435) | TGI (OVCAR-3 ovarian) | TGI (MCF7 breast)

COc1c(C2(c3ccc(F)cc3)SCCCS2)c(=O)c1=O
> 100 µM: TGI (HOP-62 NSCLC) | TGI (MOLT-4 leukemia) | TGI (UO-31 renal) | TGI (SW-620 colon) | TGI (CAKI-1 renal) | TGI (MDA-MB-435) | TGI (MDA-N) | TGI (OVCAR-3 ovarian) | TGI (MCF7 breast)

c1ccc2[nH]c(-c3nc4ccccc4o3)nc2c1
> 100 µM: TGI (HOP-62 NSCLC) | TGI (MOLT-4 leukemia) | TGI (UO-31 renal) | TGI (SR leukemia) | TGI (OVCAR-3 ovarian)

C=C(NC(=O)C(=C)NC(=O)c1csc(C2=NC3c4csc(n4)C4NC(=O)c5csc(n5)C(C(C)(O)C(C)O)NC(=O)C5CSC(=N5)/C(=C/C)NC(=O)C(C(C)O)NC(=O)c5csc(n5)C3(CC2)NC(=O)C(C)NC(=O)C(=C)NC(=O)C(=C)NC(=O)C(C(C)C)NC2C=Cc3c(C(C)O)cc(nc3C2O)C(=O)OC4C)n1)C(N)=O (configuration not stated)
> 87.2 µM: TGI (CAKI-1 renal)
> 52.8 µM: TGI (MDA-MB-435)
> 26 µM: TGI (MCF7 breast)
> 100 µM: TGI (HOP-62 NSCLC) | TGI (UO-31 renal) | TGI (SW-620 colon) | TGI (MDA-N) | TGI (OVCAR-3 ovarian)

Cc1c2c(n3c(nc4ccccc43)c1C#N)N(c1ccc(Cl)cc1)CC2
> 100 µM: TGI (HOP-62 NSCLC) | TGI (UO-31 renal) | TGI (SW-620 colon) | TGI (CAKI-1 renal) | TGI (MDA-MB-435) | TGI (MDA-N) | TGI (OVCAR-3 ovarian) | TGI (MCF7 breast)

NCCC1(N)CCNCC1
> 100 µM: TGI (MOLT-4 leukemia) | TGI (UO-31 renal) | TGI (SW-620 colon) | TGI (SR leukemia) | TGI (CAKI-1 renal) | TGI (MDA-MB-435) | TGI (MDA-N)

CCOC(=O)NNC(=O)NCCNC(=O)NNC(=O)OCC
> 100 µM: TGI (MOLT-4 leukemia) | TGI (UO-31 renal) | TGI (SW-620 colon) | TGI (SR leukemia) | TGI (CAKI-1 renal) | TGI (MDA-MB-435) | TGI (MDA-N) | TGI (OVCAR-3 ovarian) | TGI (MCF7 breast)
